Results taken from patent US9175016B2, “Prochelators useful for inhibiting metal-associated toxicity” (Duke University, priority 2009, dated 2015).

Legend:
Aβ [1] = experiment: UV-vis analysis of H2O2-treated Aβ samples; assay type: biochemical; conditions: samples containing Aβ/Cu/QBP/H2O2
From the text: FIG. 5. UV-vis analysis of H2O2-treated Aβ samples. The samples are the same ones as in FIG. 4.
Further confirmation that Cu(8HQ)2 is, indeed, generated in the reaction of Aβ/Cu/QBP/H2O2 described in FIG. 4 comes from the UV-vis spectrum of the reaction mixture, shown in FIG. 5.
(§1) The complex [Cu(8HQ)2] has a characteristic absorbance band at 375 nm, which is clearly visible in samples that contain Aβ, Cu^2+ and 8HQ. […] Mass spectral analysis of the sample gives m/z of 352, further confirming formation of [Cu(8HQ)2] in these complex mixtures. The previous experiment contained a relatively high concentration (1 mM) of H2O2 that was added in a single bolus. Several groups have shown that combinations of Aβ, Cu and reductants produce significant amounts of H2O2 from O2. Therefore, to investigate whether these conditions of more biologically relevant H2O2 production are sufficient for activating QPB, samples of Aβ, Cu^2+ (provided as Cu(Gly)2), ascorbic acid, and either 8HQ or QBP were monitored for H2O2 production with the Amplex Red assay. […] Samples that contain Cu and ascorbate (with or without Aβ) provide just over 300 nM detectable H2O2. […] When 8HQ is present at a 2:1 ratio to Cu, the amount of detectable H2O2 diminishes to one third that detected in the presence of Aβ. […] When QBP is added to the reaction mixture in place of 8HQ, a similar result is obtained.

H2O2 production by Cu = experiment: Hydrogen peroxide detection by the Amplex Red/HRP assay (Aβ, Cu(Gly)2, ascorbic acid); assay type: biochemical
Procedure: FIG. 6. Hydrogen peroxide detection by the Amplex Red/HRP assay for samples containing various combinations of 200 nm Aβ, 200 nm Cu(Gly)2, 10 μM ascorbic acid, 2-200 μM QBP, 50-400 nm 8HQ, in a total volume of 50 μL buffer (50 mM hepes, 150 mM NaCl). Samples were incubated at 37° C. for approximately 1 h before 50 μL of Amplex Red/HRP reagent was added. Fluorescence readings were taken with λex=485 and λem=590 nm.
as §1

[2] = Stability of QBP in aqueous solution (hydrolysis to QBA), monitored by UV-Vis and mass spectrometry; assay type: physicochemical
Aβ [3] = experiment: Turbidity (light scattering) assay of metal-induced Aβ aggregation; assay type: biochemical
Procedure: FIG. 4. […] Samples, which contain various combinations of 10 μM Aβ, 10 μM Cu(Gly)2, 10 μM ZnCl2, 10 or 20 μM 8HQ, 20 or 100 μM QBA, 20 or 100 μM QBP, as indicated on the graph, were incubated in a 96 well plate at 37° C. Total volume per well was made up to 200 μL with Hepes buffer. Abs readings were taken 64 min after mixing (diagonal hashed bars). After one hour incubation, 1 mM H2O2 was added to each well and Abs readings were taken after 30 min (horizontal striped bars). Error bars represent the variability of triplicate measurements.

[4] = Rate of conversion of QBP to 8HQ by H2O2 (pseudo first-order, spectrophotometric); assay type: physicochemical; conditions: 100 μM QBP, PBS pH 7.4, 1-10 mM H2O2
Procedure: FIG. 3. Plot of kobs at varying concentrations of H2O2 to obtain the rate constant k for the conversion of QBP to HQ. QBP was initially dissolved in a minimal amount of methanol and then diluted into PBS buffer, pH 7.4, to a final concentration of 100 μM. Spectra were taken immediately after addition of 1-10 mM H2O2; at least 40 spectra were collected before 50% conversion of prochelator to chelator. The change in absorbance at 273 nm was used to follow the reaction. The negative slope of the linear fit of ln(1−(A−Ao/Ao)) vs time gives the observed rate constant kobs. The slope of the line through data kobs vs [H2O2] provides k (M^−1 s^−1).
In order to determine the rate of conversion of QBP to 8HQ by H2O2 (Eq. 2), reactions were monitored spectrophotometrically under pseudo first-order conditions of excess H2O2. The observed rate constants (kobs) were plotted against peroxide concentration (FIG. 3) to give a rate constant k of 0.13 M^−1 s^−1. rate=k[QBP][H2O2] Eq. 2

[5] = UV-vis spectra of oxidation and Cu2+ binding by QBP; conditions: 100 μM QBP
Procedure: FIG. 2. Oxidation and Cu^2+ binding by QBP. 100 μM QBP and 50 μM Cu(Gly)2 were incubated in PBS buffer pH 7.4. After one hour, 4 mM H2O2 was added. After 60 min, oxidation and Cu binding were complete. Resulting spectrum is nearly identical to 8HQ-Cu spectra.
With the phenol of 8HQ masked by the pinanediol boronic ester, the QBP prochelator should have little to no affinity for metal ions.

[6] = preliminary investigations
From the text: Quinoline boronic acid (QBA) is commercially available. […] In order to prevent premature metal binding, it was therefore necessary to form a boronic ester.

**Q.** Which “formation of [Cu(8HQ)2] (absorbance band at 375 nm)” value (Aβ [1]) does the source give for `CC1(C)C2CC3OB(c4cccc5cccnc45)OC3(C)C1C2` (stereo not shown) [QBP] here?
**A.** [Cu(8HQ)2] has, indeed, been generated

**Q.** What about the “H2O2 detected relative to the concentration obtained in the absence of chelator” value (H2O2 production by Cu; 100 μM QBP with Cu, ascorbate and Aβ) of the same molecule?
**A.** a third

**Q.** What about the H2O2 detected (H2O2 production by Cu; 100 μM QBP with Cu, ascorbate and Aβ, 1-h incubation) of the same molecule?
**A.** about 100 nM

**Q.** What about the “hydrolysis to QBA in aqueous solution” value ([2]; between pH 5-8, over the course of 10 h) of the same molecule?
**A.** no signs of hydrolysis

**Q.** And the “hydrolysis to QBA in aqueous solution” value ([2]; low and high pH values outside pH 5-8, mass spectrometry)?
**A.** some hydrolysis to QBA was detected

**Q.** What about the “turbidity of Aβ/Cu2+ samples after H2O2 addition” value (Aβ [3]; 1 mM H2O2 added after one hour incubation, read 30 min later) of the same molecule?
**A.** significant decrease in turbidity

**Q.** And the “metal-induced Aβ aggregation” value (Aβ [3]; 20 or 100 μM QBP, no H2O2)?
**A.** does not interfere

**Q.** What about the “rate constant k for conversion of QBP to 8HQ by H2O2” value [4] of the same molecule?
**A.** 0.13 M⁻¹ s⁻¹

**Q.** And the “time after H2O2 addition at which oxidation and Cu binding were complete” value ([5]; 50 μM Cu(Gly)2, PBS pH 7.4, 4 mM H2O2)?
**A.** 60 min

**Q.** What about the “spectrum after addition of H2O2” value ([5]; 50 μM Cu(Gly)2, PBS pH 7.4, 4 mM H2O2 added) of the same molecule?
**A.** matches that of [Cu(8HQ)2]

**Q.** What about the “interaction with Cu2+ in prochelator form (UV-vis spectral change)” value ([5]; 50 μM Cu(Gly)2, PBS pH 7.4, one hour, no H2O2) of the same molecule?
**A.** does not interact with Cu^2+

**Q.** With `Oc1cccc2cccnc12` [8HQ, 8-hydroxyquinoline, reference compound] as the molecule, how does the “amount of detectable H2O2 relative to that detected in the presence of Aβ” value (H2O2 production by Cu; 8HQ at a 2:1 ratio to Cu) read?
**A.** one third

**Q.** And the H2O2 production (H2O2 production by Cu; 8HQ at a quarter of an equiv of Cu, 200 nM Cu(Gly)2, 200 nM Aβ, 10 μM ascorbic acid, 1-h incubation, pH 7.4)?
**A.** inhibits H2O2 production

**Q.** What about the “copper-induced Aβ aggregation” value (Aβ [3]; 2 equiv of 8HQ, 10 μM Aβ, 10 μM Cu(Gly)2, 37° C.) of the same molecule?
**A.** completely inhibits

**Q.** What about the “zinc-induced Aβ aggregation” value (Aβ [3]; 2 equiv of 8HQ, 10 μM Aβ, 10 μM ZnCl2, 37° C.) of the same molecule?
**A.** significantly reduces

**Q.** With `OBO.c1ccc2ncccc2c1` [QBA, Quinoline boronic acid] as the molecule, how does the “interaction with metal ions” value [6] read?
**A.** interacts directly with metal ions
